This note sets out measurements from ChEMBL document CHEMBL2074413, “Effect of cisplatin-induced acute renal failure on bioavailability and intestinal secretion of quinolone antibacterial drugs in rats” (Pharm Res, 2004).

The structures appear in SMILES notation.

Holding throughout (assay type): functional, cell-based
Series [1] has as its target T1, ATP-dependent translocase ABCB1 (Homo sapiens, UniProt P08183). The experiment in a line: TP_TRANSPORTER: transepithelial transport (basal to apical) of Ciprofloxacin at 2uM in LLC-GA5-COL150 cells. Conditions: pig, llc-ga5-col150, 2 µM.
Series [2] concerns the target T1, ATP-dependent translocase ABCB1. Kind of series: TP_TRANSPORTER: transepithelial transport (basal to apical) of Digoxin at a concentration of 58.8nM in LLC-GA5-COL150 cells. Conditions: pig.
Series [3] shares this target. The experiment in a line: TP_TRANSPORTER: transepithelial transport (basal to apical) of Grepafloxacin at a concentration of 5uM in LLC-GA5-COL150 cells. Conditions: pig, llc-ga5-col150, 5 µM.
Series [4] has the same target. The experiment in a line: TP_TRANSPORTER: transepithelial transport (basal to apical) of Levofloxacin at a concentration of 5uM in LLC-GA5-COL150 cells. Conditions: pig, llc-ga5-col150, 5 µM.

T1 sequence (P08183 whole entry): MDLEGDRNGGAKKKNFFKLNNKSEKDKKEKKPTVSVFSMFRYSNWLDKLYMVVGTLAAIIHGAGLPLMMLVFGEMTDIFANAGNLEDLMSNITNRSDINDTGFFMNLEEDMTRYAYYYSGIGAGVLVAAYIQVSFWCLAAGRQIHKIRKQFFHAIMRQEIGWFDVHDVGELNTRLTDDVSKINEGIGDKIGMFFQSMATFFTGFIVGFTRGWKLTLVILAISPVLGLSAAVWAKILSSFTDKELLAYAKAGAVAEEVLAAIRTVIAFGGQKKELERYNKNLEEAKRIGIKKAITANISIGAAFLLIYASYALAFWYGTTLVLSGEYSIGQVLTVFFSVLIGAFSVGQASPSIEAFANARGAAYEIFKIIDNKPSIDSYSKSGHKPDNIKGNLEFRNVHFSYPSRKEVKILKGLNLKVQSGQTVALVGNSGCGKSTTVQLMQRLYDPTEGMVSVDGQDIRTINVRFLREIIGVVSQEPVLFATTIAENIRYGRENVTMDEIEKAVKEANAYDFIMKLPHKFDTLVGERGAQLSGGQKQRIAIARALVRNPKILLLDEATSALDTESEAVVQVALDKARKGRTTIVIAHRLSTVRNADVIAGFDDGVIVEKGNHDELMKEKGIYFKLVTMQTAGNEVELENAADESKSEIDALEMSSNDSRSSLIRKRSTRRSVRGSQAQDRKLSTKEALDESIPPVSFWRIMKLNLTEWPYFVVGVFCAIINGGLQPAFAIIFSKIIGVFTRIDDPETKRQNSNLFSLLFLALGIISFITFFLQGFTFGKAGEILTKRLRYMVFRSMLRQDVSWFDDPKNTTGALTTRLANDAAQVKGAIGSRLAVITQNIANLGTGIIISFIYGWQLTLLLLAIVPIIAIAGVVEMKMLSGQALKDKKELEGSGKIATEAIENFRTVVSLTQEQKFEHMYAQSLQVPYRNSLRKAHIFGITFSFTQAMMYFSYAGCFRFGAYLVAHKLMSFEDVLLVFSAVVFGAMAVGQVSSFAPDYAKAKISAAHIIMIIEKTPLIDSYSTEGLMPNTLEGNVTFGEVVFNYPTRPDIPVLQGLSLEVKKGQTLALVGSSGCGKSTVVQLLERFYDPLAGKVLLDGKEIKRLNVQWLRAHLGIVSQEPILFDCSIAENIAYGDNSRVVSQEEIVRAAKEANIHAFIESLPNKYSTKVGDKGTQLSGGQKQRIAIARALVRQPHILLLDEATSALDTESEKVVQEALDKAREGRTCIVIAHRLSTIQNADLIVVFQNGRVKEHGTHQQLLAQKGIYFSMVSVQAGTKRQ

Turning to `O=C(O)c1cn(C2CC2)c2cc(N3CCNCC3)c(F)cc2c1=O` [CIPROFLOXACIN], in series [1], the Activity entry was “is not a substrate [-]”.

Turning to `C[C@H]1O[C@@H](O[C@H]2[C@@H](O)C[C@H](O[C@H]3[C@@H](O)C[C@H](O[C@H]4CC[C@@]5(C)[C@H](CC[C@@H]6[C@@H]5C[C@@H](O)[C@]5(C)[C@@H](C7=CC(=O)OC7)CC[C@]65O)C4)O[C@@H]3C)O[C@@H]2C)C[C@H](O)[C@@H]1O` [DIGOXIN], the Activity entry in series [2] was “substrate [+]”.

Regarding `Cc1c(F)c(N2CCNC(C)C2)cc2c1c(=O)c(C(=O)O)cn2C1CC1` (centres undefined) [GREPAFLOXACIN], the Activity result in series [3] is “substrate [+]”.

Turning to `C[C@H]1COc2c(N3CCN(C)CC3)c(F)cc3c(=O)c(C(=O)O)cn1c23.C[C@H]1COc2c(N3CCN(C)CC3)c(F)cc3c(=O)c(C(=O)O)cn1c23.O` [LEVOFLOXACIN], in series [4], the Activity result is “substrate [+]”.
